# Reference: PubChem BioAssay (NCI)
#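 48-hour exposure; five concentrations; linearly interpolated endpoints. GI50 marks 50% less growth. The concentration for full growth arrest is given as TGI.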
# Assays:
# Test in all cases: NCI anticancer screen, dose series, 48 h
# A498 renal = system: A498 renal
# NCI-H522 lung = system: NCI-H522 lung
# HOP-92 NSCLC = system: HOP-92 NSCLC
# OVCAR-5 ovarian = system: OVCAR-5 ovarian
# UO-31 renal = system: UO-31 renal
# COLO 205 colon = system: COLO 205 colon
# HOP-62 NSCLC = system: HOP-62 NSCLC
# SN12C renal = system: SN12C renal
# DLD-1 colon = system: DLD-1 colon
# U251 CNS = system: U251 CNS
# UACC-62 melanoma = system: UACC-62 melanoma
# SK-MEL-2 melanoma = system: SK-MEL-2 melanoma
# SNB-19 CNS = system: SNB-19 CNS
# SK-OV-3 ovarian = system: SK-OV-3 ovarian
# IGROV1 ovarian = system: IGROV1 ovarian
# ACHN renal = system: ACHN renal
# LOX IMVI melanoma = system: LOX IMVI melanoma
# HCC-2998 colon = system: HCC-2998 colon
# M19-MEL melanoma = system: M19-MEL melanoma
# 786-0 renal = system: 786-0 renal
# OVCAR-8 ovarian = system: OVCAR-8 ovarian
# OVCAR-4 ovarian = system: OVCAR-4 ovarian
# MOLT-4 leukemia = system: MOLT-4 leukemia
# KM12 colon = system: KM12 colon
# HCT-15 colon = system: HCT-15 colon
# SK-MEL-5 melanoma = system: SK-MEL-5 melanoma
# EKVX NSCLC = system: EKVX NSCLC
# SW-620 colon = system: SW-620 colon
# OVCAR-3 ovarian = system: OVCAR-3 ovarian
# M14 melanoma = system: M14 melanoma
# UACC-257 melanoma = system: UACC-257 melanoma
# NCI-H23 lung = system: NCI-H23 lung
# LXFL 529 NSCLC = system: LXFL 529 NSCLC
# HCT-116 colon = system: HCT-116 colon
# DMS 273 small cell lung = system: DMS 273 small cell lung
# K-562 leukemia = system: K-562 leukemia
# MALME-3M melanoma = system: MALME-3M melanoma
# SK-MEL-28 melanoma = system: SK-MEL-28 melanoma
# HL-60(TB) leukemia = system: HL-60(TB) leukemia
# SNB-75 CNS = system: SNB-75 CNS
# SF-268 CNS = system: SF-268 CNS
# RPMI-8226 leukemia = system: RPMI-8226 leukemia
# RXF 393 renal = system: RXF 393 renal
# DMS 114 small cell lung = system: DMS 114 small cell lung
# HT29 colon = system: HT29 colon
# SF-295 CNS = system: SF-295 CNS
# CCRF-CEM leukemia = system: CCRF-CEM leukemia
# TK-10 renal = system: TK-10 renal
# KM20L2 colon = system: KM20L2 colon
# NCI-H460 lung = system: NCI-H460 lung
# CAKI-1 renal = system: CAKI-1 renal
# SF-539 CNS = system: SF-539 CNS
# NCI-H226 lung = system: NCI-H226 lung
# A549 NSCLC = system: A549 NSCLC
compound,measurement,setting,value
[Ce+3].[Cl-].[O-]/N=C(\c1ccccc1)c1ccccn1.[O-]/N=C(\c1ccccc1)c1ccccn1.[O-]/N=C(\c1ccccc1)c1ccccn1,GI50,A498 renal,54 µM
same,TGI,A498 renal,> 100 µM
same,GI50,NCI-H522 lung,21.9 µM
same,TGI,NCI-H522 lung,73.6 µM
same,GI50,HOP-92 NSCLC,25.1 µM
same,TGI,HOP-92 NSCLC,> 100 µM
same,GI50,OVCAR-5 ovarian,> 100 µM
same,TGI,OVCAR-5 ovarian,> 100 µM
same,GI50,UO-31 renal,28.1 µM
same,TGI,UO-31 renal,82.9 µM
same,GI50,COLO 205 colon,33.1 µM
same,TGI,COLO 205 colon,> 100 µM
same,GI50,HOP-62 NSCLC,30.3 µM
same,TGI,HOP-62 NSCLC,> 100 µM
same,GI50,SN12C renal,47.9 µM
same,TGI,SN12C renal,> 100 µM
same,GI50,DLD-1 colon,40 µM
same,TGI,DLD-1 colon,> 100 µM
same,GI50,U251 CNS,> 100 µM
same,TGI,U251 CNS,> 100 µM
same,GI50,UACC-62 melanoma,39.7 µM
same,TGI,UACC-62 melanoma,> 100 µM
same,GI50,SK-MEL-2 melanoma,30.9 µM
same,TGI,SK-MEL-2 melanoma,76.6 µM
same,GI50,SNB-19 CNS,42.6 µM
same,TGI,SNB-19 CNS,> 100 µM
same,GI50,SK-OV-3 ovarian,37.2 µM
same,TGI,SK-OV-3 ovarian,> 100 µM
same,GI50,IGROV1 ovarian,39.6 µM
same,TGI,IGROV1 ovarian,> 100 µM
same,GI50,ACHN renal,48.9 µM
same,TGI,ACHN renal,> 100 µM
same,GI50,LOX IMVI melanoma,26 µM
same,TGI,LOX IMVI melanoma,64.7 µM
same,GI50,HCC-2998 colon,35.3 µM
same,TGI,HCC-2998 colon,> 100 µM
same,GI50,M19-MEL melanoma,35.8 µM
same,TGI,M19-MEL melanoma,> 100 µM
same,GI50,786-0 renal,47 µM
same,TGI,786-0 renal,> 100 µM
same,GI50,OVCAR-8 ovarian,37.9 µM
same,TGI,OVCAR-8 ovarian,> 100 µM
same,GI50,OVCAR-4 ovarian,55 µM
same,TGI,OVCAR-4 ovarian,> 100 µM
same,GI50,MOLT-4 leukemia,27.7 µM
same,TGI,MOLT-4 leukemia,> 100 µM
same,GI50,KM12 colon,46.8 µM
same,TGI,KM12 colon,> 100 µM
same,GI50,HCT-15 colon,38.1 µM
same,TGI,HCT-15 colon,> 100 µM
same,GI50,SK-MEL-5 melanoma,28.8 µM
same,TGI,SK-MEL-5 melanoma,85.8 µM
same,GI50,EKVX NSCLC,30.2 µM
same,TGI,EKVX NSCLC,> 100 µM
same,GI50,SW-620 colon,46.1 µM
same,TGI,SW-620 colon,> 100 µM
same,GI50,OVCAR-3 ovarian,21.4 µM
same,TGI,OVCAR-3 ovarian,90.3 µM
same,GI50,M14 melanoma,35.7 µM
same,TGI,M14 melanoma,> 100 µM
same,GI50,UACC-257 melanoma,38 µM
same,TGI,UACC-257 melanoma,> 100 µM
same,GI50,NCI-H23 lung,59.8 µM
same,TGI,NCI-H23 lung,> 100 µM
same,GI50,LXFL 529 NSCLC,44.4 µM
same,TGI,LXFL 529 NSCLC,> 100 µM
same,GI50,HCT-116 colon,33.8 µM
same,TGI,HCT-116 colon,> 100 µM
same,GI50,DMS 273 small cell lung,31.9 µM
same,TGI,DMS 273 small cell lung,> 100 µM
same,GI50,K-562 leukemia,36.3 µM
same,TGI,K-562 leukemia,> 100 µM
same,GI50,MALME-3M melanoma,69.8 µM
same,TGI,MALME-3M melanoma,> 100 µM
same,GI50,SK-MEL-28 melanoma,37.9 µM
same,TGI,SK-MEL-28 melanoma,> 100 µM
same,GI50,HL-60(TB) leukemia,18.7 µM
same,TGI,HL-60(TB) leukemia,60.2 µM
same,GI50,SNB-75 CNS,15.1 µM
same,TGI,SNB-75 CNS,66 µM
same,GI50,SF-268 CNS,44.4 µM
same,TGI,SF-268 CNS,> 100 µM
same,GI50,RPMI-8226 leukemia,59.7 µM
same,TGI,RPMI-8226 leukemia,> 100 µM
same,GI50,RXF 393 renal,34.4 µM
same,TGI,RXF 393 renal,96.3 µM
same,GI50,DMS 114 small cell lung,28.3 µM
same,TGI,DMS 114 small cell lung,85 µM
same,GI50,HT29 colon,72 µM
same,TGI,HT29 colon,> 100 µM
same,GI50,SF-295 CNS,37.2 µM
same,TGI,SF-295 CNS,> 100 µM
same,GI50,CCRF-CEM leukemia,29.3 µM
same,TGI,CCRF-CEM leukemia,> 100 µM
same,GI50,TK-10 renal,51.4 µM
same,TGI,TK-10 renal,> 100 µM
same,GI50,KM20L2 colon,> 100 µM
same,TGI,KM20L2 colon,> 100 µM
same,GI50,NCI-H460 lung,47.1 µM
same,TGI,NCI-H460 lung,> 100 µM
same,GI50,CAKI-1 renal,32.4 µM
same,TGI,CAKI-1 renal,> 100 µM
same,GI50,SF-539 CNS,31 µM
same,TGI,SF-539 CNS,91.9 µM
same,GI50,NCI-H226 lung,21.5 µM
same,TGI,NCI-H226 lung,72 µM
same,GI50,A549 NSCLC,42.4 µM
same,TGI,A549 NSCLC,> 100 µM
